Test results taken from US10519134B2, “Pyrazole compounds and methods of making and using same” (Lundbeck La Jolla Research Center, Inc., priority 2015, dated 2019).

Tests used:
FAAH = molecular target: T1, FAAH (Mus musculus, UniProt O08914); test: In vitro competitive activity-based protein profiling (mouse), FAAH gel band; format: biochemical; conditions: for IC50: mouse; for inhibition at 1 µM: read-out: FAAH % inh. 1 μM
T1 construct: Proteomes (mouse brain membrane fraction or cell lysates); from tissue; host or cells: mouse brain membrane fraction (or cell lysates)
T1 sequence (O08914 1-579): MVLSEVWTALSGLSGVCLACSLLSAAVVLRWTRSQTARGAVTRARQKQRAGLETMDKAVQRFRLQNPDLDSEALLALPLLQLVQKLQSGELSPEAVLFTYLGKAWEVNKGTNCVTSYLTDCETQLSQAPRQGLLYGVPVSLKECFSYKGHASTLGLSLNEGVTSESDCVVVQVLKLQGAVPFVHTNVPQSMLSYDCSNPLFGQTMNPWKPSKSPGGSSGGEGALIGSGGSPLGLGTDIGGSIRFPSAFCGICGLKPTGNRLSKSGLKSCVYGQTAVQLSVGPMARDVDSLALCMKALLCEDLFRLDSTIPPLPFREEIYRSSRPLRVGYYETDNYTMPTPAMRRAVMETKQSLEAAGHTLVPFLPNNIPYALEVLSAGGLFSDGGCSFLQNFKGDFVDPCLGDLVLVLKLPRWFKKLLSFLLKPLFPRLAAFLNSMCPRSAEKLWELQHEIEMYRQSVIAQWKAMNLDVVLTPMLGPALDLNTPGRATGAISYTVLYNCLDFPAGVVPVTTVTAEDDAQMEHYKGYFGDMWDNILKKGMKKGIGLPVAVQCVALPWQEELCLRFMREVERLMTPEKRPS
Protocol: (§1) In Vitro Competitive Activity-Based Protein Profiling (Mouse).
(§2) Proteomes (mouse brain membrane fraction or cell lysates) (50 μL, 1.0 mg/mL total protein concentration) were preincubated with varying concentrations of inhibitors at 37° C. After 30 min, FP-Rh or HT-01 (1.0 μL, 50 μM in DMSO) was added and the mixture was incubated for another 30 min at 37° C. Reactions were quenched with SDS loading buffer (15 μL—4×) and run on SDS-PAGE. Following gel imaging, serine hydrolase activity was determined by measuring fluorescent intensity of gel bands corresponding to MAGL, ABHD6, and FAAH, using ImageJ 1.43u software.

MAGL = molecular target: T2, MAGL (Mus musculus, UniProt O35678); test: In vitro competitive activity-based protein profiling (mouse), MAGL gel band; format: biochemical; conditions: for IC50: mouse; for inhibition at 1 µM: read-out: MAGL % inh. 1 μM
T2 construct: Proteomes (mouse brain membrane fraction or cell lysates); from tissue; host or cells: mouse brain membrane fraction (or cell lysates)
T2 sequence (O35678 1-303): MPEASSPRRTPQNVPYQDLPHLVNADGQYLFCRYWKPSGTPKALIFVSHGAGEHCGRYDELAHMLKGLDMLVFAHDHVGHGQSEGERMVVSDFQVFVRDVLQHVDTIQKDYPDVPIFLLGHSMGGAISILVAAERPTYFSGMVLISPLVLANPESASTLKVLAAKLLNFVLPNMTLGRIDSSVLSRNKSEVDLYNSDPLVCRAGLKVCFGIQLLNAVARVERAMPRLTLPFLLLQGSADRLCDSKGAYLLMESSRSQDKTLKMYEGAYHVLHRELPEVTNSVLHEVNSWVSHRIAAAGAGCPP
Protocol: as §1, §2

Row | SMILES | IC50 (FAAH) [nM] | inhibition at 1 µM (FAAH) [%] | IC50 (MAGL) [nM] | inhibition at 1 µM (MAGL) [%]
1 | CC(=O)Nc1ccn(C(=O)N2CCC3(CCCN3Cc3cc(Cl)cc(N4C5CCC4COC5)c3)CC2)n1 [Example 64, N-(1-(1-(3-(3-oxa-8-azabicyclo[3.2.1]octan-8-yl)-5-chlorobenzyl)-1,8-diazaspiro[4.5]decane-8-carbonyl)-1H-pyrazol-3-yl)acetamide] | 1000 to 10000 | 0 to 25 | ≤ 100 | ≥ 75
2 | Cc1cc(-c2ccccc2)ccc1CN1CCN(C(=O)n2ccc(NS(C)(=O)=O)n2)CC1 [Example 150, N-(1-(4-((3-methyl-[1,1′-biphenyl]-4-yl)methyl)piperazine-1-carbonyl)-1H-pyrazol-3-yl) methanesulfonamide] | 100 to 1000 | ≥ 75 | 100 to 1000 | ≥ 75
3 | CS(=O)(=O)Nc1ccn(C(=O)N2CCC3(CCCN3Cc3cccc(N4CC5CCC(C4)O5)c3Cl)CC2)n1 [Example 145, N-(1-(1-(3-(8-oxa-3-azabicyclo[3.2.1]octan-3-yl)-2-chlorobenzyl)-1,8-diazaspiro[4.5]decane-8-carbonyl)-1H-pyrazol-3-yl) methanesulfonamide] | 1000 to 10000 | 0 to 25 | 100 to 1000 | ≥ 75
4 | CC(=O)N(C)c1ccn(C(=O)N2CCC3(CCCN3Cc3cc(N4C5CCC4COC5)cc(C(F)(F)F)c3)CC2)n1 [Example 67, N-(1-(1-(3-(3-oxa-8-azabicyclo[3.2.1]octan-8-yl)-5-(trifluoromethyl)benzyl)-1,8-diazaspiro[4.5]decane-8-carbonyl)-1H-pyrazol-3-yl)-N-methylacetamide] |  | 0 to 25 |  | 0 to 25
5 | CS(=O)(=O)Nc1ccn(C(=O)N2CCC3(CCCN3Cc3cccc(N4CCCCC4)c3Cl)CC2)n1 [Example 144, N-(1-(1-(2-chloro-3-(piperidin-1-yl)benzyl)-1,8-diazaspiro[4.5]decane-8-carbonyl)-1H-pyrazol-3-yl) methanesulfonamide] | 1000 to 10000 | 0 to 25 | 100 to 1000 | ≥ 75
6 | CC(=O)Nc1ccn(C(=O)N2CCC3(CCCN3Cc3ccc(Cl)c(C(F)(F)F)c3)CC2)n1 [Example 25, N-(1-(1-(4-chloro-3-(trifluoromethyl)benzyl)-1,8-diazaspiro[4.5]decane-8-carbonyl)-1H-pyrazol-3-yl)acetamide] |  | 25 to 50 |  | ≥ 75
7 | CC(C)(O)C1CCN(c2cc(CN3CCN(C(=O)n4ccc(NS(C)(=O)=O)n4)CC3)ccc2C(F)(F)F)CC1 [Example 280, N-(1-(4-(3-(4-(2-hydroxypropan-2-yl)piperidin-1-yl)-4-(trifluoromethyl)benzyl)piperazine-1-carbonyl)-1H-pyrazol-3-yl) methanesulfonamide] |  | 0 to 25 |  | ≥ 75
8 | CC(=O)Nc1ccn(C(=O)N2CCC3(CCCN3Cc3cc(Cl)cc(N4CC5CN(C(C)=O)CC5C4)c3)CC2)n1 (stereo not drawn) [Example 65, N-(1-(1-(3-(5-acetylhexahydropyrrolo[3,4-c]pyrrol-2(1H)-yl)-5-chlorobenzyl)-1,8-diazaspiro[4.5]decane-8-carbonyl)-1H-pyrazol-3-yl)acetamide] |  | 25 to 50 |  | ≥ 75
9 | CS(=O)(=O)Nc1ccn(C(=O)N2CCN(Cc3ccc(C(F)(F)F)cc3N3CCN(CC(=O)O)CC3)CC2)n1 [Example 241, 2-(4-(2-((4-(3-(methylsulfonamido)-1H-pyrazole-1-carbonyl)piperazin-1-yl)methyl)-5-(trifluoromethyl)phenyl)piperazin-1-yl)acetic acid] |  | 0 to 25 |  | 50 to 75
10 | CN1CCC(Oc2cc(CN3CCN(C(=O)n4ccc(NS(C)(=O)=O)n4)CC3)ccc2Cl)CC1 [Example 220, N-(1-(4-(4-chloro-3-((1-methylpiperidin-4-yl)oxy)benzyl)piperazine-1-carbonyl)-1H-pyrazol-3-yl) methanesulfonamide] |  | 0 to 25 |  | 25 to 50
11 | Cc1cc(CN2CCCC23CCN(C(=O)n2ccc(NC(=O)C(F)(F)F)n2)CC3)ccc1Cl [Example 117, N-(1-(1-(4-chloro-3-methylbenzyl)-1,8-diazaspiro[4.5]decane-8-carbonyl)-1H-pyrazol-3-yl)-2,2,2-trifluoroacetamide] |  | 0 to 25 |  | ≥ 75
12 | Cc1ccc(CN2CCN(C(=O)n3ccc(NS(C)(=O)=O)n3)CC2)c(N2CCCCC2)c1 [Example 138, N-(1-(4-(4-methyl-2-(piperidin-1-yl)benzyl)piperazine-1-carbonyl)-1H-pyrazol-3-yl) methanesulfonamide] | 1000 to 10000 | 0 to 25 | 100 to 1000 | ≥ 75
13 | CS(=O)(=O)Nc1ccn(C(=O)N2CCN(Cc3ccc(N4CCOCC4)c(Cl)c3)CC2)n1 [Example 170, N-(1-(4-(3-chloro-4-morpholinobenzyl)piperazine-1-carbonyl)-1H-pyrazol-3-yl) methanesulfonamide] |  | 0 to 25 |  | 25 to 50
14 | CS(=O)(=O)Nc1ccn(C(=O)N2CCN(Cc3cc(N4CCCC4)ccc3C(F)(F)F)CC2)n1 [Example 195, N-(1-(4-(5-(pyrrolidin-1-yl)-2-(trifluoromethyl)benzyl)piperazine-1-carbonyl)-1H-pyrazol-3-yl) methanesulfonamide] |  | 0 to 25 |  | ≥ 75
15 | Cc1ccc(CN2CCN(C(=O)n3ccc(NS(C)(=O)=O)n3)CC2)c(N2CCOCC2)c1 [Example 147, N-(1-(4-(4-methyl-2-morpholinobenzyl)piperazine-1-carbonyl)-1H-pyrazol-3-yl) methanesulfonamide] |  | 0 to 25 |  | ≥ 75
16 | CC(=O)Nc1ccn(C(=O)N2CCN(Cc3ccc(Cl)cc3N3CCC(F)CC3)CC2)n1 [Example 7, N-(1-(4-(4-chloro-2-(4-fluoropiperidin-1-yl)benzyl)piperazine-1-carbonyl)-1H-pyrazol-3-yl)acetamide] | 1000 to 10000 | 0 to 25 | ≤ 100 | ≥ 75
17 | CS(=O)(=O)Nc1ccn(C(=O)N2CCN(Cc3cc(N4CCC(C(=O)O)C4)cc(C(F)(F)F)c3)CC2)n1 (stereo not drawn) [Example 244, 1-(3-((4-(3-(methylsulfonamido)-1H-pyrazole-1-carbonyl)piperazin-1-yl)methyl)-5-(trifluoromethyl)phenyl)pyrrolidine-3-carboxylic acid] |  | 0 to 25 |  | 0 to 25
18 | CS(=O)(=O)Nc1ccn(C(=O)N2CCN(Cc3cc(N4CCOCC4)ccc3Cl)CC2)n1 [Example 258, N-(1-(4-(2-chloro-5-morpholinobenzyl)piperazine-1-carbonyl)-1H-pyrazol-3-yl) methanesulfonamide] |  | 0 to 25 |  | 0 to 25
19 | CC(=O)Nc1ccn(C(=O)N2CCC3(CCCN3Cc3ccc(C)c(C(F)(F)F)c3)CC2)n1 [Example 23, N-(1-(1-(4-methyl-3-(trifluoromethyl)benzyl)-1,8-diazaspiro[4.5]decane-8-carbonyl)-1H-pyrazol-3-yl)acetamide] | 1000 to 10000 | 0 to 25 | ≤ 100 | ≥ 75
20 | CC(=O)Nc1ccn(C(=O)N2CCC3(CCCN3Cc3ccc4nc(C)oc4c3)CC2)n1 [Example 265, N-(1-(1-((2-methylbenzo[d]oxazol-6-yl)methyl)-1,8-diazaspiro[4.5]decane-8-carbonyl)-1H-pyrazol-3-yl)acetamide] | 1000 to 10000 | 0 to 25 | 100 to 1000 | ≥ 75
21 | CS(=O)(=O)Nc1ccn(C(=O)N2CCN(Cc3ccc(Cl)c(-c4cnccn4)c3)CC2)n1 [Example 283, N-(1-(4-(4-chloro-3-(pyrazin-2-yl)benzyl)piperazine-1-carbonyl)-1H-pyrazol-3-yl) methanesulfonamide] |  | 0 to 25 |  | ≥ 75
22 | CS(=O)(=O)Nc1ccn(C(=O)N2CCN(Cc3cc(C(F)(F)F)cc(C(F)(F)F)c3)CC2)n1 [Example 177, N-(1-(4-(3,5-bis(trifluoromethyl)benzyl)piperazine-1-carbonyl)-1H-pyrazol-3-yl) methanesulfonamide] |  | 0 to 25 |  | ≥ 75
